In ChEMBL document CHEMBL1149723, “Structures of four new triterpenoid oligoglycosides: DS-penaustrosides A, B, C, and D from the sea cucumber Pentacta australis” (J Nat Prod, 1992):
≈ marks a conversion by molar mass, not a printed value.

Columns and labels:
L1210 = test: Cytotoxicity against mouse L1210 cells; type: functional, cell-based
KB = test: Cytotoxicity against human KB cells; type: functional, cell-based

SMILES	IC50 (L1210) [µg/mL]	IC50 (KB) [µg/mL]
CO[C@@H]1[C@@H](O)[C@H](O[C@@H]2[C@@H](O)[C@H](O[C@H]3[C@H](O)[C@@H](O[C@@H]4OC[C@@H](O)[C@H](O)[C@H]4O)[C@H](O[C@H]4[C@H](O[C@H]5CC[C@]6(C)C7=CC[C@]8(C)[C@@H]([C@@](C)(O)CCCC(C)C)CC[C@@]8(C)[C@@H]7CC[C@H]6C5(C)C)OC[C@@H](O)[C@@H]4O)O[C@@H]3C)O[C@H](CO)[C@H]2O)O[C@H](CO)[C@H]1O [DS-PENAUSTROSIDE A]	0.12 (≈ 0.101 µM)	0.62 (≈ 0.52 µM)
C=C(C)CCC[C@](C)(O)[C@H]1CC[C@@]2(C)[C@@H]3CC[C@H]4C(C)(C)[C@@H](O[C@@H]5OC[C@@H](O)[C@H](O)[C@H]5O[C@@H]5O[C@H](C)[C@@H](O[C@@H]6O[C@H](CO)[C@@H](O)[C@H](O[C@@H]7O[C@H](CO)[C@@H](O)[C@H](OC)[C@H]7O)[C@H]6O)[C@H](O)[C@H]5O[C@@H]5OC[C@@H](O)[C@H](O)[C@H]5O)CC[C@]4(C)C3=CC[C@]12C [DS-PENAUSTROSIDE B]	2.1 (≈ 1.76 µM)	4.6 (≈ 3.86 µM)
